Source: ChEMBL document CHEMBL2029347, “Identification of blapsins A and B as potent small-molecule 14-3-3 inhibitors from the insect Blaps japanensis” (Bioorg Med Chem Lett, 2012)

What was measured:
[1] = target: T1, 14-3-3 protein gamma (Homo sapiens, UniProt P61981); assay: Inhibition of recombinant GST-tagged 14-3-3gamma interaction with TMR-pS259-Raf peptide after 30 mins by fluorescence polarization assay
T1 sequence (P61981 whole entry): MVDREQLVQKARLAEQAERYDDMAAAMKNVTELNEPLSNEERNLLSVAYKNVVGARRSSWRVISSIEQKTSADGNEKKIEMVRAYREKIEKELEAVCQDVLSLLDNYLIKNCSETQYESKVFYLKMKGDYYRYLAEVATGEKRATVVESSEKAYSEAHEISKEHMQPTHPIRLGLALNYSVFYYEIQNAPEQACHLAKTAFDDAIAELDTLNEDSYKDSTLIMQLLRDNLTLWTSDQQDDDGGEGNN

[2] = target: T1, 14-3-3 protein gamma; assay: Inhibition of recombinant GST-tagged 14-3-3gamma interaction with PRAS40 in Cos7 cell lysate by ELISA; type: cell-free

| SMILES | IC50 [1] [µM] | IC50 [2] [µM] |
| --- | --- | --- |
| O=C(Cc1ccc(O)c(O)c1)OCCc1ccc(O)c(O)c1 [BLAPSIN A] | 2 | 9.2 |
| Oc1ccc(C2OCCc3cc(O)c(O)cc32)cc1O (racemic) [BLAPSIN B] | 2.5 | 10 |
